In patent US8163766B2, “Beta-secretase modulators and methods of use” (Amgen Inc., priority 2005, dated 2012) one finds IC50 data, which are given here for nine molecules.

A value given as a limit tells only on which side of the number the result lay.

The assay deals with Aβ 40 in conditioned media of cells stably expressing Amyloid Precursor Protein (APP). As to the kind of experiment: BACE Cell-Based Assay (Aβ40 in conditioned medium, sandwich ELISA). As to conditions: 24 hours of incubation with the test compounds, Aβ 40 by sandwich ELISA, read-out: IC50 values in the cell-based assay (inhibition of Aβ 40). In outline: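 APP-stably-expressing cells in DMEM/10% FBS exposed 24 h to 10-point compound dilutions starting at 100 or 10 μM, 0.1% DMSO final. Aβ40 in conditioned medium measured by sandwich ELISA (pAb40 capture, biotinylated 6E10 detection, Eu time-resolved fluorescence); IC50 from percent inhibition versus concentration.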
A general note: ELISA stands for enzyme-linked immunosorbent assay.
Turning to `CCc1ccc2c(c1)[C@@H](NC[C@@H](O)[C@H](Cc1ccccc1)NC(=O)[C@@H]1CN(C(=O)N3CCO[C@@H](C)C3)CCO1)CC1(CCC1)O2` [Example 521, (2S)-N-((1S,2R)-3-(((4S)-6-ethyl-3,4-dihydrospiro[chromene-2,1′-cyclobutan]-4-yl)amino)-2-hydroxy-1-(phenylmethyl)propyl)-4-(((2S)-2-methyl-4-morpholinyl)carbonyl)-2-morpholinecarboxamide], the IC50 was not above 5 µM.

For `CC(C)(C)Cc1cnc2c(c1)[C@@H](NC[C@@H](O)[C@H](Cc1ccccc1)NC(=O)c1cc(C3CCCCO3)c(=O)n(C3CCCC3)c1)CC1(CCC1)O2` (stereo partly drawn) [Example 522, 1-cyclopentyl-N-((1S,2R)-3-(((4′S)-6′-(2,2-dimethyl-propyl)-3′,4′-dihydrospiro[cyclobutane-1,2′-pyrano[2,3-b]pyridin]-4′-yl)amino)-2-hydroxy-1-(phenyl-methyl)propyl)-6-oxo-5-(tetrahydro-2H-pyran-2-yl)-1,6-dihydro-3-pyridinecarboxamide], the concentration for half-maximal inhibition (IC50) is not above 5 µM.

`CCc1cc2c(s1)CC(C)(C)C[C@@H]2NC[C@@H](O)[C@H](Cc1ccccc1)NC(=O)[C@H]1CC(=O)N(C2CCC2)C1` [Example 523, (3S)-1-cyclobutyl-N-((1S,2R)-3-(((4S)-2-ethyl-6,6-dimethyl-4,5,6,7-tetrahydro-1-benzothien-4-yl)amino)-2-hydroxy-1-(phenylmethyl)propyl)-5-oxo-3-pyrrolidinecarboxamide]: the IC50 was not above 5 µM.

Take `O=C(N[C@@H](Cc1ccccc1)[C@H](O)CN[C@H]1CC2(CCC2)Oc2ccc(N3CCOCC3)cc21)[C@H]1CC(=O)N(C2CCC2)C1` [Example 524, (3S)-1-cyclobutyl-N-((1S,2R)-2-hydroxy-3-(((4S)-6-(4-morpholinyl)-3,4-dihydrospiro[chromene-2,1′-cyclobutan]-4-yl)amino)-1-(phenylmethyl)propyl)-5-oxo-3-pyrrolidinecarboxamide]: the IC50 is not above 5 µM.

`CCc1ccc2c(c1)[C@@H](NC[C@@H](O)[C@H](Cc1cscn1)NC(=O)c1cc(-c3ccccn3)c(=O)n(C3CCCC3)c1)CC1(CCC1)O2` [Example 525, 1′-cyclopentyl-N-((1S,2R)-3-(((4S)-6-ethyl-3,4-dihydrospiro[chromene-2,1′-cyclobutan]-4-yl)amino)-2-hydroxy-1-(1,3-thiazol-4-ylmethyl)propyl)-2′-oxo-1′,2′-dihydro-2,3′-bipyridine-5′-carboxamide]: the IC50 is not above 5 µM.

On to `O=C(N[C@@H](Cc1ccccc1)[C@H](O)CN[C@H]1CC2(CCC2)Oc2ccc(N3CCOCC3)cc21)[C@@H]1CN(C(=O)C2CCOCC2)CCO1` [Example 526, (2S)-N-((1S,2R)-2-hydroxy-3-(((4S)-6-(4-morpholinyl)-3,4-dihydrospiro[chromene-2,1′-cyclobutan]-4-yl)amino)-1-(phenylmethyl)propyl)-4-(tetrahydro-2H-pyran-4-ylcarbonyl)-2-morpholinecarboxamide], for which the IC50 is not above 5 µM.

As to `CCc1ccc2c(c1)[C@@H](NC[C@@H](O)[C@H](Cc1ccccc1)NC(=O)[C@@H]1C[C@@H](c3ccccc3)CN(C(=O)c3cccc(C)c3)C1)CC1(CCC1)O2` [Example 527, (3R,5S)-N-((1S,2R)-3-(((4S)-6-ethyl-3,4-dihydrospiro[chromene-2,1′-cyclobutan]-4-yl)amino)-2-hydroxy-1-(phenylmethyl)propyl)-1-((3-methylphenyl)carbonyl)-5-phenyl-3-piperidinecarboxamide], the IC50 was not above 5 µM.

As to `O=C1CC[C@@H](C(=O)N[C@@H](Cc2ccccc2)[C@H](O)CN[C@H]2CC3(CCC3)Oc3ccc(N4CCOCC4)cc32)O1` [Example 528, (2S)-N-((1S,2R)-2-hydroxy-3-(((4S)-6-(4-morpholinyl)-3,4-dihydrospiro[chromene-2,1′-cyclobutan]-4-yl)amino)-1-(phenylmethyl)propyl)-5-oxotetrahydro-2-furancarboxamide], the IC50 was not above 5 µM.

As to `O=C1CC[C@H](C(=O)N[C@@H](Cc2ccccc2)[C@H](O)CN[C@H]2CC3(CCC3)Oc3ccc(N4CCOCC4)cc32)O1` [Example 529, (2R)-N-((1S,2R)-2-hydroxy-3-(((4S)-6-(4-morpholinyl)-3,4-dihydrospiro[chromene-2,1′-cyclobutan]-4-yl)amino)-1-(phenylmethyl)propyl)-5-oxotetrahydro-2-furancarboxamide], the IC50 was not above 5 µM.

By IC50 is commonly meant the concentration needed to halve the response being measured.
